Assays:
[1] = green fluorescence; cited from earlier work
[2] = Measurement of maximum absorption wavelength, maximum fluorescence wavelength and fluorescence quantum yield in solvents; assay type: physicochemical
Protocol: Using a luminescent quantum yield measurement apparatus ([…]-01, manufactured by Hamamatsu Photonics K. K.), the maximum absorption wavelength (λabs/nm), the maximum fluorescence wavelength (λflu/nm), and the fluorescence quantum yield (Φf) of the compound in each solvent were measured. […] The fluorescence quantum yield was not less than 0.9 in any of the solvents.

[3] = Measurement of fluorescence lifetime in solvents; assay type: physicochemical
Protocol: The fluorescence lifetime (τf) of the compound in each solvent was measured using a compact fluorescence lifetime measurement apparatus (Quntaurus-Tau, manufactured by Hamamatsu Photonics K. K.).
The compounds of the present invention synthesized in the above Synthesis Examples (FIG. 4; DBC30, DBC30-Bu, and DBC30-Ph) contain an 8-dibutylaminocoumarine skeleton. […] The maximum absorption wavelength was found at 401 to 412 nm, and the maximum fluorescence wavelength was found at 467 to 484 nm, which corresponds to blue fluorescence. […] The fluorescence quantum yield was not less than 0.9 in any of the solvents.

[4] = test system: lipid droplets in HeLa cells; test: Fluorescence imaging of lipid droplets in cultured cells (luminescence intensity vs Lipi-Blue); assay type: cell-based; conditions: 400 μM oleic acid 48 h, reagent 500 nM, 60 min, excitation 430 nm, compared with Lipi-Blue
Protocol: (§1) Fluorescence intensity imaging and fluorescence lifetime imaging were carried out using a confocal laser microscope (IX-73; manufactured by Olympus Corporation) equipped with a confocal scanner (DCS-120; Becker & Hickl).
Imaging of lipid droplets in cultured cells was studied by a comparative experiment on the performance between DBC30, DBC30-Bu, and DBC30-Ph, and a commercially available blue imaging reagent (Lipi-Blue). The investigated items were the luminescence intensity and the photostability.
Each fluorescent reagent was added to a final concentration of 500 nM to HeLa cells cultured for 48 hours in the presence of 400 μM oleic acid. Culture was then performed for 60 minutes, and the cultured cells were irradiated with an excitation light (DBC30, DBC30-Bu, DBC30-Ph, Lipi-Blue: 430 nm) required for the imaging, followed by observation using a confocal laser microscope.

[5] = test system: lipid droplets in HeLa cells; test: Co-staining with BODIPY 493/503 for lipid droplet selectivity; assay type: cell-based; conditions: 400 μM oleic acid, 100 nM, 30 min, excitation 430 nm, observation 460-500 nm
Protocol: In order to clarify the lipid droplet selectivities of DBC30, DBC30-Bu, and DBC30-Ph, co-staining experiments were carried out with BODIPY 493/503, which is a commercially available green fluorescent lipid droplet reagent (FIGS. 8 to 10). Each fluorescent reagent was added to a final concentration of 100 nM to HeLa cells cultured for 48 hours in the presence of 400 μM oleic acid. Culture was then performed for 30 minutes, and the cultured cells were irradiated with an excitation light required for the imaging, followed by observation. For DBC30, DBC30-Bu and DBC30-Ph, the excitation wavelength was 430 nm, and the observation wavelength was 460-500 nm. For BODIPY 493/503, the excitation wavelength was 488 nm, and the observation wavelength was 510 to 560 nm.

[6] = Solubility / precipitation in physiological saline; assay type: physicochemical
Protocol: (§2) Fluorescence imaging of lipid droplets in a tissue, and of an adipose tissue, using DBC30, DBC30-Bu, or DBC30-Ph is described below. Since the DBC30 series has remarkably low solubility in water (physiological saline), they cannot be easily directly dissolved. […] Therefore, they cannot be administered to mice. In view of this, the 5 mM stock solution was added (at a volume ratio of 10%) to physiological saline supplemented with 10% bovine serum albumin. […] Regarding administration of MNs-NB, a stock solution in DMSO is directly administered to mice. Since administration of DMSO may cause death of mice from shock, the administration method in the present invention is thought to be a safer method. Here, 100 to 200 μL of 500 μM solution (50 to 100 nmol) was administered to the tail vein of mice under anesthesia, and a fluorescence imaging experiment was carried out. In the present experiment, a microscope capable of acquiring fluorescence lifetime images as well as fluorescence intensity images (FLIM: fluorescence lifetime imaging microscope) was used.

[7] = test system: lipid droplets in HeLa cells; test: Photostability in cells under repeated confocal scanning; assay type: cell-based; conditions: 400 μM oleic acid, 100 nM, 500 times of scanning, excitation 430 nm
Protocol: Photostability is an important factor in long-term measurement for, for example, tracing the processes of formation, fusion, and degradation of lipid droplets. Each fluorescent reagent was added to a final concentration of 100 nM (DBC30, C6-OBu, or BODIPY493/503) or 2 μM (Lipi-Blue) to HeLa cells cultured for 48 hours in the presence of 400 μM oleic acid. Culture was then performed for 30 minutes, and the cultured cells were irradiated with an excitation light (DBC30, DBC30-Bu, Lipi-Blue: 430 nm; BODIPY 493/503: 488 nm) required for the imaging, followed by acquisition of imaging images using a confocal laser microscope. The photostability was evaluated by 500 times of scanning in which a set of 50 times of scanning was repeated.

[8] = test system: lipid droplets; test: Multicolor imaging with Mito Tracker Green and Lyso Tracker Red; assay type: cell-based; conditions: co-staining with Mito Tracker Green and Lyso Tracker Red
Source text: Mito Tracker Green (excitation wavelength, 488 nm; observation wavelength, 510 to 560 nm), which is a green fluorescent reagent showing accumulation in mitochondria, and Lyso Tracker Red (excitation wavelength, 570 nm; observation wavelength, >590 nm), which is a red fluorescent reagent showing accumulation in lysosomes, were used.

[9] = test system: lipid droplets in the liver; test: Fluorescence intensity and lifetime imaging of liver lipid droplets in normal and fatty-liver model mice; assay type: in vivo, mice (BALB/cAJcl); conditions: 50 nmol, tail vein
Protocol: as §1
as §2, with “used. […]” for “used.”

[10] = test system: adipose tissues and lipid droplets; test: Fluorescence imaging of adipose tissues, skeletal muscle and kidney of a mouse; assay type: in vivo, mouse (BALB/cAJcl); conditions: 50 nmol
Protocol: as §1, §2
In an individual, various adipose tissues and lipid droplets are present. Their imaging was carried out using DBC30. […]

[11] = 5 mM DMSO stock added at 10% to physiological saline supplemented with 10% bovine serum albumin
[12] = 5 mM DMSO stock added at volume ratio of 10% to physiological saline

Structure (SMILES)	fluorescence wavelength [1]	λabs max ([2]; in Bu2O (dibutyl ether)) [nm]	λflu max ([2]; in Bu2O (dibutyl ether)) [nm]	φl (fluorescence quantum yield) ([2]; in Bu2O (dibutyl ether))	λabs max ([2]; in MeCN (acetonitrile)) [nm]	λflu max ([2]; in MeCN (acetonitrile)) [nm]	φl (fluorescence quantum yield) ([2]; in MeCN (acetonitrile))	τf (fluorescence lifetime) ([3]; in Bu2O (dibutyl ether)) [ns]	τf (fluorescence lifetime) ([3]; in MeCN (acetonitrile)) [ns]	fluorescence intensity in cells [4]	lipid droplet selectivity (co-staining with BODIPY 493/503) [5]	precipitation [6, 11]	precipitation [6, 12]	photostability in cells [7]	use in multicolor imaging [8]	imaging of lipid droplets in liver ([9]; fatty-liver model mouse (Week 2))	imaging of lipid droplets in liver ([9]; mouse fed with a normal diet)	imaging of lipid droplets in kidney [10]	imaging of subcutaneous adipose tissue, abdominal adipose tissue, skeletal muscle and kidney [10]
CC1=CC(C)=[N+]2C1=C(C)c1c(C)cc(C)n1[B-]2(F)F [BODIPY 493/503]	about 500 nm	–	–	–	–	–	–	–	–	–	–	–	–	–	–	–	–	–	–
CCCCN(CCCC)c1ccc2cc(-c3nc4ccccc4n3-c3ccccc3)c(=O)oc2c1 [DBC30-Ph]	–	399	467	0.92	412	484	0.92	2.29	2.51	higher fluorescence intensities than the HeLa cells to which Lipi-Blue was added	found to have lipid droplet selectivity	could be suppressed	precipitation of DBC30, DBC30-Bu, or DBC30-Ph occurs	–	–	–	–	–	–
CCCCN(CCCC)c1ccc2cc(-c3nc4ccccc4n3C)c(=O)oc2c1 [DBC30]	–	404	468	0.93	410	484	0.90	2.29	2.55	higher fluorescence intensities than the HeLa cells to which Lipi-Blue was added	found to have lipid droplet selectivity	could be suppressed	precipitation of DBC30, DBC30-Bu, or DBC30-Ph occurs	higher photostability compared to the conventional reagents such as Lipi-Blue	can be used for multicolor imaging	large lipid droplets were imaged over the entire liver surface	small lipid droplets could be found in hepatocytes	small lipid droplets distributed in tubular cells could be imaged	Fluorescence derived from DBC30 was found from sites where lipid is accumulated
